From PubChem BioAssay (NCI) come the findings set out here.

Values joined by “and” are separate entries in the source; they are usually repeats but may differ in a detail not shown here. Equal entries are not always repeated.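 Following 48 hours of exposure in 96-well plates, responses at five concentrations were used to interpolate endpoints linearly. At the GI50, growth is halved. TGI: concentration producing complete growth inhibition.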

Holding throughout (assay): growth of human tumour cells (NCI), 48 h
Experiment [1] concerns ACHN renal.
Experiment [2] has as its system EKVX NSCLC.
The subject of experiment [3] is HL-60(TB) leukemia.
Experiment [4] deals with HOP-62 NSCLC.
The test system of experiment [5] is M14 melanoma.
The test system of experiment [6] is MALME-3M melanoma.
Experiment [7] concerns MOLT-4 leukemia.
In experiment [8] the test system is SF-539 CNS.
Experiment [9] concerns SN12C renal.
Experiment [10] relates to SNB-75 CNS.

Consider `NC1=C(O)/C(=N/NS(=O)(=O)c2ccccc2)C(c2cccc(Cl)c2)O1` (stereo not drawn), for which the TGI in experiment [1] was more than 84.1 µM; in [2], more than 100 µM; in experiment [3] it was 12.5 µM; in experiment [4] it was more than 100 µM; in [5] it was 67.6 µM; in [6] it was 54.8 µM. Further, the TGI in experiment [7] was 19.1 µM; in [8], more than 81.8 µM; in experiment [9], more than 67.2 µM; in [10], more than 80.4 µM.

For `CC/C(=C(/c1ccc(Cl)cc1)c1ccc(OCCCN(C)C)cc1)c1ccc(OC)cc1`, the GI50 in experiment [1] was 5.61 µM; in [2], 5.76 µM; in [3], 1.15 µM; in experiment [4] it was 7.76 µM; in experiment [5], 0.966 µM; in experiment [6], 1.2 µM. Moreover, the GI50 was 1.05 µM in [7], 4.08 µM in experiment [8], 5.05 µM in experiment [9] and 6.02 µM in experiment [10]. Further, the TGI was determined as 12.4 µM in [1]; 12.6 µM in experiment [2]; 2.84 µM in experiment [3]; 15.7 µM in experiment [4]; 1.92 µM in experiment [5]; 2.67 µM in experiment [6]. The TGI in [7] came out at 2.53 µM; in experiment [8], 11.6 µM; in experiment [9], 11.8 µM; in experiment [10], 12.3 µM.

As to `Clc1ccc2c(NCCCNCc3ccc4c(c3)OCO4)ccnc2c1`, the GI50 in experiment [1] is 3.45 µM; in experiment [2] it was 9.4 µM; in experiment [3] it was 2.22 µM; in [4] it was 11.5 µM; in [5], 1.74 µM; in experiment [6] it was 1.86 µM. The GI50 in experiment [7] is 2.68 µM; in [8], 1.85 µM; in experiment [9] it was 8.26 µM; in experiment [10], 1.52 µM. Further, the TGI turned out to be 12 µM in experiment [1]; 24 µM in experiment [2]; 4.79 µM in experiment [3]; 24.2 µM in [4]; 3.42 µM in experiment [5]; 3.48 µM in experiment [6]. Besides, the TGI was 10.2 µM in experiment [7], 3.41 µM in experiment [8], 21.6 µM in [9] and 3.37 µM in experiment [10].

As to `CCN(CC)[C@@H]1c2cc3c(cc2C(c2cc(OC)c(O)c(OC)c2)C2C(=O)CO[C@@H]21)OCO3` (stereo partly drawn), the TGI in experiment [1], in experiment [2], in experiment [3], in experiment [4], in experiment [5] and in experiment [6] was more than 100 µM throughout. The TGI in experiment [7], in [8], in experiment [9] and in [10] was more than 100 µM throughout.

On to `NC(CSC(c1ccccc1)(c1ccccc1)c1ccc(Br)cc1)C(=O)O` (stereo not drawn), for which the GI50 is 11.6 µM in [1]; 0.707 µM in [2]; 0.412 µM in experiment [3]; 0.457 µM in experiment [4]; 0.0318 µM in experiment [5]; 0.651 µM in experiment [7]. Also, the GI50 in experiment [8] was 0.11 µM; in [9], 0.3 µM; in experiment [10] it was 0.729 µM. The TGI in experiment [1] was more than 100 µM; in experiment [2] it was more than 100 µM; in [3], 75.3 µM; in [4], 21.8 µM; in experiment [5], 0.146 µM; in experiment [6], more than 88.6 µM. Further, the TGI was more than 82.1 µM in experiment [7], 13.5 µM in experiment [8], 49.8 µM in experiment [9] and more than 50.8 µM in experiment [10].

For the compound `COc1ccc(S(=O)(=O)Nc2c(/C=C\c3cc(OC)c(OC)c(OC)c3)ccc(OC)c2O)cc1OC`, the GI50 in experiment [1] is 0.526 µM; in experiment [2], 0.452 µM; in experiment [3], 0.338 µM; in [4], 0.61 µM; in experiment [5], 0.205 µM; in experiment [6], more than 100 µM. The GI50 in experiment [7] was 0.44 µM; in experiment [8], 0.0856 µM; in experiment [9], 0.484 µM; in experiment [10], 0.251 µM. Moreover, the TGI in [1], in [2], in experiment [3], in [4], in experiment [5] and in experiment [6] was more than 100 µM each time. The TGI in [7] is more than 100 µM; in experiment [8] it was 0.457 µM; in experiment [9] it was more than 100 µM; in experiment [10], more than 100 µM.

As to `CCOc1ccc(-n2cc(-c3ccc(N(C)C)cc3)[n+]3c2CCCCC3)cc1`, the GI50 is 2.63 µM in [1]; 0.244 µM in [2]; 0.164 µM in [3]; 2.3 µM in [4]; 1.46 µM in experiment [5]; 0.269 µM in [6]. In addition, the GI50 was 1 µM in experiment [7], 2.26 µM in experiment [8], 0.891 µM in [9] and 0.906 µM in experiment [10]. The TGI in experiment [1] is more than 100 µM; in [2], more than 100 µM; in experiment [3], 1.53 µM; in experiment [4] it was more than 77.9 µM; in experiment [5], 33.8 µM; in [6], 14.1 µM. For the same compound, the TGI in [7] was 26.5 µM; in [8] it was more than 100 µM; in experiment [9], 19 µM; in experiment [10], 17.7 µM.

With `COc1ccc(-n2cc(-c3ccc(F)cc3)[nH]c2=O)cc1OC`, the GI50 was more than 100 µM in experiment [1]; more than 100 µM in experiment [2]; more than 100 µM in experiment [3]; 54.7 µM in experiment [4]; more than 100 µM in [5]; more than 100 µM in experiment [6]. Further, the GI50 in experiment [7] was more than 100 µM; in experiment [8], 82.2 µM; in experiment [9], 58 µM; in experiment [10] it was more than 100 µM. Further, the TGI in [1], in [2], in [3], in experiment [4], in experiment [5] and in experiment [6] was more than 100 µM in each case. Moreover, the TGI in [7], in experiment [8], in experiment [9] and in experiment [10] was more than 100 µM each time.

Take `N[C@@H](Cc1ccc(N(CCCl)CCCl)cc1)C(=O)O`: the GI50 in [1] was 3.99 µM; in experiment [2], 51.3 µM and 37.5 µM and 52 µM; in experiment [3] it was 6.96 µM; in experiment [4], 28.7 µM and 4.34 µM; in [5], 17.3 µM; in experiment [6] it was 13.7 µM and 18.3 µM. In addition, the GI50 was 3.43 µM and 1.45 µM in experiment [7]; 6.03 µM and 4.36 µM in experiment [8]; 3.73 µM and 9.39 µM in experiment [9]; 16.3 µM and 14.4 µM in experiment [10]. Moreover, the TGI in [1] is 21.5 µM and 78.2 µM; in experiment [2], > 100 µM and 58.3 µM and 128 µM; in [3], 11.6 µM and 33 µM; in experiment [5], > 100 µM and 84.2 µM; in [6], 30.5 µM and 35.3 µM and 66 µM; in experiment [7], 20.6 µM and 24.5 µM and 52.6 µM. The TGI in [8] was 49.6 µM and 8.61 µM and 53.8 µM; in [9], > 100 µM and > 68.3 µM and 161 µM; in experiment [10] it was 95.9 µM and > 51.6 µM and 123 µM.
